According to patent US20040171489A1, “Synergistic active compound combinations for controlling harmful plants” (priority 1998, published 2004):

Key:
winter wheat [1] = assay: Example 7a field trial, 2-4 leaf stage: crop damage; type: in vivo, Triticum aestivum; details: 28 days after application
Protocol: (§1) The herbicidal efficacy of the active compounds or active compound mixtures was scored visually using the treated plots in comparison to untreated control plots. The damage and development of all above-ground parts of the plants were recorded. Scoring was carried out using a percentage scale (100% effect=all plants killed; 50% effect=50% of the plants and the green parts of the plants killed; 0% effect=no noticeable effect=like control plot. The scores of in each case 4 plots were averaged.
(§2) If the observed activity values already exceed the formal sum of the values for the trials with the individual applications, they also exceed the expected value according to Colby which is calculated using the following formula and which is likewise considered to be an indication of synergism (cf. S. R. Colby; in Weeds 15 (1967) p. 20 to 22):
(§3) Crop plants were grown outdoors on plots under natural outdoor conditions, and seeds or rhizome pieces of typical harmful plants were laid out or the natural weed growth was utilized. Treatment with the compositions according to the invention was carried out after the harmful plants had emerged and the crop plants were, generally, at the 2- to 4-leaf stage; in some cases (as stated), application of individual active compounds or active compound combinations was carried out pre-emergence (cf. Section 1) or post-emergence (cf. Section 2) or as a sequential treatment partly pre-emergence and/or post-emergence. After the application, for example 2, 4, 6 and 8 weeks after the application, the effect of the preparations was scored visually by comparison with untreated controls (cf. scoring in Section 1). In the field trial as well, the compositions according to the invention have synergistic herbicidal activity against a broad spectrum of economically important weed grasses and broad-leaved weeds. […] Moreover, the effects in essential phases of the scoring period were above the expected values according to Colby, also indicating synergism. […]

Chenopodium album = assay: Example 7a field trial, 2-4 leaf stage: herbicidal effect; type: in vivo; details: 28 days after application
Protocol: as §1, §2, §3

winter wheat [2] = assay: Example 7b field trial, 2-4 leaf stage: crop damage; type: in vivo, Triticum aestivum; details: 50 g of ai/ha; 28 days after application
Protocol: as §1, §2
(§4) Crop plants were grown outdoors on plots under natural outdoor conditions, and seeds or rhizome pieces of typical harmful plants were laid out or the natural weed growth was utilized. […] After the application, for example 2, 4, 6 and 8 weeks after the application, the effect of the preparations was scored visually by comparison with untreated controls (cf. scoring in Section 1). […]

winter wheat [3] = assay: Example 6 field trial, stage begin of VERPE blossom: crop damage; type: in vivo, Triticum aestivum; details: 50 g of ai/ha; 28 days after application
Protocol: as §1, §2, §4

Veronica persicaria = assay: Example 6 field trial, stage begin of VERPE blossom: herbicidal effect; type: in vivo; details: 50 g of ai/ha; 28 days after application
Protocol: as §1, §2, §4

Stellaria media = assay: Example 7b field trial, 2-4 leaf stage: herbicidal effect; type: in vivo; details: 50 g of ai/ha; 28 days after application
Protocol: as §1, §2, §4

Papaver rhoeas [4] = assay: Example 2 field trial, fall application 2-4 leaf stage: herbicidal effect; type: in vivo; details: 45 days after the application
Protocol: as §1, §2, §4

winter barley [5] = assay: Example 2 field trial, fall application 2-4 leaf stage: crop damage; type: in vivo, Hordeum vulgare; details: 45 days after the application
Protocol: as §1, §2, §4

winter wheat [6] = assay: Example 4 field trial, application fall 2-4 leaf stage: crop damage; type: in vivo, Triticum aestivum; details: 100 g of ai/ha; 60 days after application
Protocol: as §1, §2, §4

Papaver rhoeas [7] = assay: Example 1 field trial, 2-4 leaf stage: herbicidal effect; type: in vivo; details: 28 days after application
Protocol: as §1, §2
(§5) Crop plants were grown outdoors on plots under natural outdoor conditions, and seeds or rhizome pieces of typical harmful plants were laid out or the natural weed growth was utilized. Treatment with the compositions according to the invention was carried out after the harmful plants had emerged and the crop plants were, generally, at the 2- to 4-leaf stage; in some cases (as stated), application of individual active compounds or active compound combinations was carried out pre-emergence (cf. Section 1) or post-emergence (cf. Section 2) or as a sequential treatment partly pre-emergence and/or post-emergence. After the application, for example 2, 4, 6 and 8 weeks after the application, the effect of the preparations was scored visually by comparison with untreated controls (cf. scoring in Section 1). In the field trial as well, the compositions according to the invention have synergistic herbicidal activity against a broad spectrum of economically important weed grasses and broad-leaved weeds. […] Moreover, the effects in essential phases of the scoring period were above the expected values according to Colby, also indicating synergism. In contrast, the crop plants were, as a consequence of the treatments with the herbicidal compositions, damaged only to a small degree, if at all.

winter wheat [8] = assay: Example 3 field trial, fall application 2-4 leaf stage: crop damage; type: in vivo, Triticum aestivum; details: 60 days after application
Protocol: as §1, §2, §4

Viola arvensis = assay: Example 3 field trial, fall application 2-4 leaf stage: herbicidal effect; type: in vivo; details: 60 days after application
Protocol: as §1, §2, §4

Papaver rhoeas [9] = assay: Example 5 field trial, 2-4 leaf stage: herbicidal effect; type: in vivo; details: 28 days after application
Protocol: as §1, §2, §3

Veronica hederifolia = assay: Example 4 field trial, application fall 2-4 leaf stage: herbicidal effect; type: in vivo; details: 100 g of ai/ha; 60 days after application
Protocol: as §1, §2, §4

Aphanes arvensis = assay: as above; type: in vivo; details: 100 g of ai/ha; 60 days after application
Protocol: as §1, §2, §4

winter barley [10] = assay: Example 5 field trial, 2-4 leaf stage: crop damage; type: in vivo, Hordeum vulgare; details: 28 days after application
Protocol: as §1, §2, §3

winter barley [11] = assay: Example 1 field trial, 2-4 leaf stage: crop damage; type: in vivo, Hordeum vulgare; details: 28 days after application
Protocol: as §1, §2, §5

Compound: CCC(CCc1ccccc1)Nc1nc(N)nc(C(C)(C)F)n1 (stereo not shown) [(A3), 4-amino-6-(1-fluoro-1-methylethyl)-2-(3-phenyl-1-ethylpropylamino)-1,3,5-triazine]
- damage, TRZAW (winter wheat [1]; 25 g of ai/ha): 1%
- damage, TRZAW (winter wheat [1]; 50 g of ai/ha): 0%
- damage, TRZAW (winter wheat [1]; 100 g of ai/ha): 10%
- herbicidal effect, CHEAL (Chenopodium album; 25 g of ai/ha): 5%
- herbicidal effect, CHEAL (Chenopodium album; 50 g of ai/ha): 35%
- herbicidal effect, CHEAL (Chenopodium album; 100 g of ai/ha): 85%
- damage, TRZAW (winter wheat [2]): 2%
- damage, TRZAW (winter wheat [3]): 0%
- herbicidal effect, VERPE (Veronica persicaria): 55%
- herbicidal effect, STEME (Stellaria media): 48%

Compound: CC(COc1cccc(Cl)c1)Nc1nc(N)nc(C(C)(C)F)n1 (stereo not shown) [(A4), 4-amino-6-(1-fluoro-1-methylethyl)-2-[2-(3-chlorophenoxy)-1-methylethyl-amino]-1,3,5-triazine]
- herbicidal effect, PAPRH (Papaver rhoeas [4]; 50 g of ai/ha): 0%
- herbicidal effect, PAPRH (Papaver rhoeas [4]; 100 g of ai/ha): 0%
- damage, HORVW (winter barley [5]; 50 g of ai/ha): 0%
- damage, HORVW (winter barley [5]; 100 g of ai/ha): 0%
- damage, TRZAW (winter wheat [6]): 0%
- herbicidal effect, PAPRH (Papaver rhoeas [7]; 25 g of ai/ha): 0%
- herbicidal effect, PAPRH (Papaver rhoeas [7]; 50 g of ai/ha): 0%
- herbicidal effect, PAPRH (Papaver rhoeas [7]; 100 g of ai/ha): 0%
- damage, TRZAW (winter wheat [8]; 50 g of ai/ha): 0%
- damage, TRZAW (winter wheat [8]; 100 g of ai/ha): 0%
- herbicidal effect, VIOAR (Viola arvensis; 50 g of ai/ha): 78%
- herbicidal effect, VIOAR (Viola arvensis; 100 g of ai/ha): 88%
- herbicidal effect, PAPRH (Papaver rhoeas [9]; 50 g of ai/ha): 0%
- herbicidal effect, PAPRH (Papaver rhoeas [9]; 100 g of ai/ha): 0%
- herbicidal effect, Veronica hederifolia (Veronica hederifolia): 40%
- herbicidal effect, Aphanes arvensis (Aphanes arvensis): 20%
- damage, HORVW (winter barley [10]; 50 g of ai/ha): 0%
- damage, HORVW (winter barley [10]; 100 g of ai/ha): 0%
- damage, HORVW (winter barley [11]; 25 g of ai/ha): 0%
- damage, HORVW (winter barley [11]; 50 g of ai/ha): 0%
- damage, HORVW (winter barley [11]; 100 g of ai/ha): 0%
